Experimental data as given in patent US9242970B2 (ACTELION PHARMACEUTICALS LTD., priority 2010, dated 2016).
Like-named read-outs stand apart in the source and are kept apart here.

Key:
human orexin-1 receptor = human orexin-1 receptor (Homo sapiens (Human), UniProt O43613); assay: In vitro assay: intracellular calcium measurements (FLIPR), antagonistic activity; assay type: cell-based; conditions: CHO cells, 3 nM orexin-A, marked values are geometric means of n = 2-6, read-out: IC50 OX1
human orexin-2 receptor = human orexin-2 receptor (Homo sapiens (Human), UniProt O43614); assay: as above; assay type: cell-based; conditions: CHO cells, 3 nM orexin-A, marked values are geometric means of n = 2-6, read-out: IC50 OX2
[1] = compound incubation time of 10 min

human orexin-2 receptor, sequence (O43614 whole entry): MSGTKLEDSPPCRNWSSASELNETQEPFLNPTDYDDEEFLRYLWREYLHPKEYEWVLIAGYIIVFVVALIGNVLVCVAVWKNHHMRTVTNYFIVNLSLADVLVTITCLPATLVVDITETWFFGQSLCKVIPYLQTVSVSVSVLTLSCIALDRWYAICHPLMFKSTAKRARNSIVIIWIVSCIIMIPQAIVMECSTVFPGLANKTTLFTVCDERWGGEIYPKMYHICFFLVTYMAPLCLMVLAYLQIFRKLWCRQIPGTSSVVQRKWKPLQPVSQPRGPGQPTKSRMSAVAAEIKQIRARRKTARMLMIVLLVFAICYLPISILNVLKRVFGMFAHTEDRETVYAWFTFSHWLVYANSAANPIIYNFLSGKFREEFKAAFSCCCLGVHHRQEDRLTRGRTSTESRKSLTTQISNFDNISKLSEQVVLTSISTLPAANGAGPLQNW
human orexin-1 receptor, sequence (O43613 whole entry): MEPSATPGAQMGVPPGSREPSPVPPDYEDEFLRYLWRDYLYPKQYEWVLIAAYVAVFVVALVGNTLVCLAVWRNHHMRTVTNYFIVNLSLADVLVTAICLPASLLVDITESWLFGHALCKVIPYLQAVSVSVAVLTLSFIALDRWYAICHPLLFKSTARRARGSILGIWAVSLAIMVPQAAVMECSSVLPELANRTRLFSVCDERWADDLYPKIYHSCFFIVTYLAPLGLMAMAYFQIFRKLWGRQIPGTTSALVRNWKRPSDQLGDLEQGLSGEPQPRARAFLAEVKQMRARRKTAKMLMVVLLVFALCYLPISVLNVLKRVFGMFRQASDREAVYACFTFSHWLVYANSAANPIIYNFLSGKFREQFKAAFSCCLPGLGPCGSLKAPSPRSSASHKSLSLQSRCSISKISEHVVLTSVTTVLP

Compound | IC50 (human orexin-1 receptor; [1]) [nM] | IC50 (human orexin-2 receptor; [1]) [nM] | IC50 (human orexin-1 receptor; compound incubation 120 min) [nM] | IC50 (human orexin-2 receptor; compound incubation 120 min) [nM]
CCC(c1ccc(OC(F)(F)F)cc1)N1C(=O)CCCC1c1c(OC)cccc1OC (centres unmarked) [Example 186, 6-(2,6-dimethoxyphenyl)-1-(1-(4-(trifluoromethoxy)phenyl)propyl)piperidin-2-one] | 2770 | 5650 |  | 
COc1cccc(OC)c1C1CCCC(=O)N1Cc1ccc(OC(F)F)cn1 (centres unmarked) [Example 187, 1-((5-(difluoromethoxy)pyridin-2-yl)methyl)-6-(2,6-dimethoxyphenyl)piperidin-2-one] | 235 | 70 |  | 
COc1cccc(OC)c1C1CCCC(=O)N1Cc1cc(OC(F)F)ccn1 (centres unmarked) [Example 188, 1-((4-(difluoromethoxy)pyridin-2-yl)methyl)-6-(2,6-dimethoxyphenyl)piperidin-2-one] | 4180 | 484 |  | 
COc1cccc(OC)c1C1CCCC(=O)N1Cc1cccc(-c2ccccc2)c1 (centres unmarked) [Example 189, 1-([1,1′-biphenyl]-3-ylmethyl)-6-(2,6-dimethoxyphenyl)piperidin-2-one] |  |  | 17 | 12
COc1cccc(OC)c1C1CCCC(=O)N1Cc1ccccc1-c1ccccc1 (centres unmarked) [Example 190, 1-([1,1′-biphenyl]-2-ylmethyl)-6-(2,6-dimethoxyphenyl)piperidin-2-one] | 1950 | 507 |  | 
COc1cccc(OC)c1C1CCCC(=O)N1Cc1ccccc1Oc1ccccc1 (centres unmarked) [Example 191, 6-(2,6-dimethoxyphenyl)-1-(2-phenoxybenzyl)piperidin-2-one] | 373 | 50 |  | 
COc1cccc(OC)c1C1CCCC(=O)N1Cc1ccc(Oc2ccccc2)nc1 (centres unmarked) [Example 192, 6-(2,6-dimethoxyphenyl)-1-((6-phenoxypyridin-3-yl)methyl)piperidin-2-one] | 361 | 29 |  | 
COc1cccc(OC)c1C1CCCCC(=O)N1Cc1ccc(OC(F)(F)F)cc1 (centres unmarked) [Example 193, 7-(2,6-dimethoxyphenyl)-1-(4-(trifluoromethoxy)benzyl)azepan-2-one] | 257 | 66 |  | 
CCOc1ccccc1C1CCC(=O)N1Cc1ccc(F)cc1 (centres unmarked) [Example 194, 5-(2-ethoxyphenyl)-1-(4-fluorobenzyl)pyrrolidin-2-one] | > 12700 | 669 |  | 
CCOc1ccccc1C1CCC(=O)N1Cc1ccc(OC(F)(F)F)cc1 (centres unmarked) [Example 195, 5-(2-ethoxyphenyl)-1-(4-(trifluoromethoxy)benzyl)pyrrolidin-2-one] | 821 | 240 |  | 
COc1cccc(OC)c1C1CCC(=O)N1Cc1ccc(OC(F)(F)F)cc1 (centres unmarked) [Example 196, 5-(2,6-dimethoxyphenyl)-1-(4-(trifluoromethoxy)benzyl)pyrrolidin-2-one] | 724 | 158 |  | 
COc1cccc(OC)c1C1CCC(=O)N1Cc1ccc(F)cc1 (centres unmarked) [Example 197, 5-(2,6-dimethoxyphenyl)-1-(4-fluorobenzyl)pyrrolidin-2-one] | > 10400 | 1300 |  | 
COc1cccc(OC)c1C1CC(C)C(=O)N1Cc1cccc(OC(F)F)c1 (centres unmarked) [Example 198, 1-(3-(difluoromethoxy)benzyl)-5-(2,6-dimethoxyphenyl)-3-methylpyrrolidin-2-one] | 117 | 96 |  | 
COc1cccc(OC)c1C1CC(C)C(=O)N1Cc1ccc(OC(F)F)nc1 (centres unmarked) [Example 199, 1-((6-(difluoromethoxy)pyridin-3-yl)methyl)-5-(2,6-dimethoxyphenyl)-3-methylpyrrolidin-2-one] | 351 | 621 |  | 
COc1cccc(OC)c1C1CC(C)C(=O)N1Cc1cccc(OC(F)(F)F)c1 (centres unmarked) [Example 200, 5-(2,6-dimethoxyphenyl)-3-methyl-1-(3-(trifluoromethoxy)benzyl)pyrrolidin-2-one] | 108 | 108 |  | 
COc1cccc(OC)c1C1CC(C)C(=O)N1Cc1cccc(OC(F)F)n1 (centres unmarked) [Example 201, 1-((6-(difluoromethoxy)pyridin-2-yl)methyl)-5-(2,6-dimethoxyphenyl)-3-methylpyrrolidin-2-one] | 955 | 192 |  | 
